Laboratory results published in patent US9999650B2, “Peptide and peptidomimetic inhibitors” (Ra Pharmaceuticals, Inc., priority 2012, dated 2018).
Numbered stars: 1 amine (or outer) side, 2 acyl side, 3 side chain; on linkers, the order of the positions; unused ones are H or OH. Bridge positions count the residues as written; N and C are the ends. Square brackets hold non-standard residues; d marks the D form. Peptide text beside a SMILES is read from it. X9 = O=C(C[C@H](C(=O)[*:2])C1CCCCC1)[C@@H]1CCCN1[*:1]; NMeW = CN[C@@H](Cc1c[nH]c2ccccc12)C(=O)O; mXylylene = c1cc(C[*:1])cc(C[*:2])c1; NMeY = CN[C@@H](Cc1ccc(O)cc1)C(=O)O; NMeT = CN[C@H](C(=O)O)[C@@H](C)O; X2 = O=C(Cc1cccc(C[*:2])c1)[*:1]; Chg = N[C@H](C(=O)O)C1CCCCC1; Tle = CC(C)(C)[C@H](N)C(=O)O; NMeS = CN[C@@H](CO)C(=O)O; NMeA = CN[C@@H](C)C(=O)O; Mpa = O=C(O)CCS; Sar = CNCC(=O)O

Molecular target: T1, human plasma kallikrein (Homo sapiens, UniProt P03952)
T1 construct: purchased Enzyme Research Laboratories HPKa 1303
T1 sequence (P03952 20-390 limits assumed): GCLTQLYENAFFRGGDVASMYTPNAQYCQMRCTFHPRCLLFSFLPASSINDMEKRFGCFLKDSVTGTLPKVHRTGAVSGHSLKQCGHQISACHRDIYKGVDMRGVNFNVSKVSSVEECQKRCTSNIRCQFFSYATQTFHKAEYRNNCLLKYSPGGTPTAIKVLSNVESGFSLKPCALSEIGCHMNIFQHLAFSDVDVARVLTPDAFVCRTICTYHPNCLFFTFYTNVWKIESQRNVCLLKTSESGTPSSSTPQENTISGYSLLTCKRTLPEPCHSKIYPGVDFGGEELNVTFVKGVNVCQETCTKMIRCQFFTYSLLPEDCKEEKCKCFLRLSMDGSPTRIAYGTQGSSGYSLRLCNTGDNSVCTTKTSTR
T1 sequence (P03952 391-638 limits assumed): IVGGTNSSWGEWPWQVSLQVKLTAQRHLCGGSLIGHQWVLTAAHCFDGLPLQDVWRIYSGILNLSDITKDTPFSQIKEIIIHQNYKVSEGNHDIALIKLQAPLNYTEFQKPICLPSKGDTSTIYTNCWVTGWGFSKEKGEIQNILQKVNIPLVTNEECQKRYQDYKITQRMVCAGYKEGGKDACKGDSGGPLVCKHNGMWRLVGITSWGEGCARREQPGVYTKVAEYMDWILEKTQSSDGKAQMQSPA
Experiment: Enzyme inhibition assay (fluorogenic substrate H-Pro-Phe-Arg-AMC)
Format: biochemical
Settings: Kallikrein inhibitory activity; 1 nM activated human kallikrein, 500 μM H-Pro-Phe-Arg-AMC, 1 hour room temperature; read-out: Avg. IC50
Procedure: Activated human plasma kallikrein (Enzyme Research Laboratories, HPKa 1303) was reacted with H-Pro-Phe-Arg-7-amido-4-methylcoumarin (H-Pro-Pre-Arg-AMC) (a fluorogenic substrate for plasma as well as pancreatic and urinary kallikreins; Bachem I-1295) and candidate inhibitory peptides to determine the IC50 of the inhibitor.
Ten 8-fold serial dilutions of peptides (10 mM DMSO stocks) were performed in DMSO and then added to TCNB (50 mM Tris-HCl pH 7.2, 150 mM NaCl, 10 mM CaCl2, 0.05% Brij-35) and sonicated. 50 μL of the peptide dilutions were added to microtitre plates (96 well, black non-binding surface, Corning, 3650) and incubated for 5 minutes at room temperature with 4 nM activated human kallikrein (final concentration after addition of fluorogenic substrate: 1 nM). The samples were then incubated for 1 hour at room temperature with 2 mM H-Pro-Phe-Arg-AMC (final concentration 500 μM). Relative Fluorescence Units (RFU) were measured at excitation/emission 360 nm/460 nm by a SpectraMax M3.

Point of comparison: `CC(C)(C)[C@H](NC(=O)[C@H](CCCNC(=N)N)NC(=O)[C@@H]1CSCc2cccc(c2)CSCCC(=O)N2CCC[C@H]2C(=O)C[C@@H](C2CCCCC2)C(=O)N1)C(N)=O` [Compound R2247] ([Mpa][X9]CR[Tle]-NH2; linker 1-3 via mXylylene), IC50 0.474 µM. Against it:
- CC(=O)N[C@H]1CSCc2cccc(c2)CSC[C@@H](C(N)=O)NC(=O)[C@H](C)NC(=O)[C@H]([C@@H](C)O)N(C)C(=O)[C@H](Cc2c[nH]c3ccccc23)NC(=O)[C@@H]2CCCN2C(=O)[C@H](CO)N(C)C(=O)[C@H](Cc2c[nH]c3ccccc23)NC(=O)[C@H](Cc2ccc(O)cc2)N(C)C(=O)[C@H](CC(N)=O)NC1=O [Compound R2223, [mXylyl(1,10)]Ac-CN-nMeY-W-nMeS-PW-nMeT-AC-NH2] (Ac-CN[NMeY]W[NMeS]PW[NMeT]AC-NH2; linker 1-10 via mXylylene) — higher, > 100 µM
- CC(=O)N[C@H]1CSSC[C@@H](C(N)=O)NC(=O)[C@H](C)NC(=O)[C@H]([C@@H](C)O)N(C)C(=O)[C@H](Cc2c[nH]c3ccccc23)NC(=O)[C@@H]2CCCN2C(=O)[C@H](CO)N(C)C(=O)[C@H](Cc2c[nH]c3ccccc23)NC(=O)[C@H](Cc2ccc(O)cc2)N(C)C(=O)[C@H](CC(N)=O)NC1=O [Compound R2224, [cyclo(1,10)]Ac-CN-nMeY-W-nMeS-PW-nMeT-AC-NH2] (Ac-CN[NMeY]W[NMeS]PW[NMeT]AC-NH2; disulfide 1-10) — higher, > 100 µM
- CC(=O)N[C@@H](CS)C(=O)N[C@@H](CC(N)=O)C(=O)N[C@@H](Cc1ccc(O)cc1)C(=O)N[C@@H](Cc1c[nH]c2ccccc12)C(=O)N[C@@H](CO)C(=O)N1CCC[C@H]1C(=O)N[C@H](Cc1c[nH]c2ccccc12)C(=O)N[C@H](C(=O)N[C@@H](C)C(=O)N[C@@H](CS)C(N)=O)[C@@H](C)O [Compound R2228, Ac-CNYWSPwTAC-NH2] (Ac-CNYWSP[dW]TAC-NH2) — higher, > 10.6 µM
- CC(=O)N[C@@H](CS)C(=O)N[C@@H](CC(N)=O)C(=O)N[C@@H](Cc1ccc(O)cc1)C(=O)N[C@@H](Cc1c[nH]c2ccccc12)C(=O)N[C@@H](CO)C(=O)N1CCC[C@@H]1C(=O)N[C@@H](Cc1c[nH]c2ccccc12)C(=O)N[C@H](C(=O)N[C@@H](C)C(=O)N[C@@H](CS)C(N)=O)[C@@H](C)O [Compound R2229, Ac-CNYWSpWTAC-NH2] (Ac-CNYWS[dP]WTAC-NH2) — higher, > 14.3 µM
- CC(=O)N[C@@H](CS)C(=O)N[C@@H](CC(N)=O)C(=O)N[C@@H](Cc1ccc(O)cc1)C(=O)N[C@@H](Cc1c[nH]c2ccccc12)C(=O)N[C@H](CO)C(=O)N1CCC[C@H]1C(=O)N[C@@H](Cc1c[nH]c2ccccc12)C(=O)N[C@H](C(=O)N[C@@H](C)C(=O)N[C@@H](CS)C(N)=O)[C@@H](C)O [Compound R2230, Ac-CNYWsPWTAC-NH2] (Ac-CNYW[dS]PWTAC-NH2) — higher, > 6.58 µM
- CC(=O)N[C@@H](CS)C(=O)N[C@@H](CC(N)=O)C(=O)N[C@H](Cc1ccc(O)cc1)C(=O)N[C@@H](Cc1c[nH]c2ccccc12)C(=O)N[C@@H](CO)C(=O)N1CCC[C@H]1C(=O)N[C@@H](Cc1c[nH]c2ccccc12)C(=O)N[C@H](C(=O)N[C@@H](C)C(=O)N[C@@H](CS)C(N)=O)[C@@H](C)O [Compound R2232, Ac-CNyWSPWTAC-NH2] (Ac-CN[dY]WSPWTAC-NH2) — higher, > 1.95 µM
- CC(=O)N[C@@H](CS)C(=O)N[C@@H](CC(N)=O)C(=O)N[C@@H](Cc1ccc(O)cc1)C(=O)N[C@@H](Cc1c[nH]c2ccccc12)C(=O)N[C@@H](CO)C(=O)N1CCC[C@H]1C(=O)N[C@@H](Cc1c[nH]c2ccccc12)C(=O)N[C@H](C(=O)N(C)[C@@H](C)C(=O)N[C@@H](CS)C(N)=O)[C@@H](C)O [Compound R2234, Ac-CNYWSPWT-nMeA-C-NH2] (Ac-CNYWSPWT[NMeA]C-NH2) — 180-fold lower, 0.0027 µM
- CC(=O)N[C@@H](CS)C(=O)N[C@@H](CC(N)=O)C(=O)N[C@@H](Cc1ccc(O)cc1)C(=O)N[C@@H](Cc1c[nH]c2ccccc12)C(=O)N[C@@H](CO)C(=O)N1CCC[C@H]1C(=O)N(C)[C@@H](Cc1c[nH]c2ccccc12)C(=O)N[C@H](C(=O)N[C@@H](C)C(=O)N[C@@H](CS)C(N)=O)[C@@H](C)O [Compound R2236, Ac-CNYWSP-nMeW-TAC-NH2] (Ac-CNYWSP[NMeW]TAC-NH2) — higher, > 4.9 µM
- CC(=O)N[C@@H](CS)C(=O)N[C@@H](CC(N)=O)C(=O)N[C@@H](Cc1ccc(O)cc1)C(=O)N[C@@H](Cc1c[nH]c2ccccc12)C(=O)N(C)[C@@H](CO)C(=O)N1CCC[C@H]1C(=O)N[C@@H](Cc1c[nH]c2ccccc12)C(=O)N[C@H](C(=O)N[C@@H](C)C(=O)N[C@@H](CS)C(N)=O)[C@@H](C)O [Compound R2237, Ac-CNYW-nMeS-PWTAC-NH2] (Ac-CNYW[NMeS]PWTAC-NH2) — higher, > 13.9 µM
- CC(=O)N[C@@H](CS)C(=O)N[C@@H](CC(N)=O)C(=O)N[C@@H](Cc1ccc(O)cc1)C(=O)N(C)[C@@H](Cc1c[nH]c2ccccc12)C(=O)N[C@@H](CO)C(=O)N1CCC[C@H]1C(=O)N[C@@H](Cc1c[nH]c2ccccc12)C(=O)N[C@H](C(=O)N[C@@H](C)C(=O)N[C@@H](CS)C(N)=O)[C@@H](C)O [Compound R2238, Ac-CNY-nMeW-SPWTAC-NH2] (Ac-CNY[NMeW]SPWTAC-NH2) — higher, > 4.52 µM
- CC(=O)N[C@@H](CS)C(=O)N[C@@H](CC(N)=O)C(=O)N(C)[C@@H](Cc1ccc(O)cc1)C(=O)N[C@@H](Cc1c[nH]c2ccccc12)C(=O)N[C@@H](CO)C(=O)N1CCC[C@H]1C(=O)N[C@@H](Cc1c[nH]c2ccccc12)C(=O)N[C@H](C(=O)N[C@@H](C)C(=O)N[C@@H](CS)C(N)=O)[C@@H](C)O [Compound R2239, Ac-CN-nMeY-WSPWTAC-NH2] (Ac-CN[NMeY]WSPWTAC-NH2) — higher, > 12.5 µM
- CC[C@@H](C)[C@@H]1NC(=O)CCCCCCC/C=C/C[C@@H](C(=O)N[C@@H](CCCNC(=N)N)C(=O)N[C@H](C(N)=O)C(C)C)NC1=O [Compound R2240] — higher, > 75 µM
- CC[C@@H](C)[C@@H]1NC(=O)CCCCCC/C=C/C[C@@H](C(=O)N[C@@H](CCCNC(=N)N)C(=O)N[C@H](C(N)=O)C(C)C)NC1=O [Compound R2241] — higher, > 75 µM
- CC[C@@H](C)[C@@H]1NC(=O)CCCCC/C=C/C[C@@H](C(=O)N[C@@H](CCCNC(=N)N)C(=O)N[C@H](C(N)=O)C(C)C)NC1=O [Compound R2242] — higher, > 100 µM
- CC[C@@H](C)[C@@H]1NC(=O)[C@@H]2CCCN2C(=O)CCCCCCCC/C=C/C[C@@H](C(=O)N[C@@H](CCCNC(=N)N)C(=O)N[C@H](C(N)=O)C(C)C)NC1=O [Compound R2243] — higher, > 50 µM
- CC[C@@H](C)[C@@H]1NC(=O)[C@@H]2CCCN2C(=O)CCCCCCC/C=C/C[C@@H](C(=O)N[C@@H](CCCNC(=N)N)C(=O)N[C@H](C(N)=O)C(C)C)NC1=O [Compound R2244] — higher, > 50 µM
- CC[C@@H](C)[C@@H]1NC(=O)[C@@H]2CCCN2C(=O)CCCCCC/C=C/C[C@@H](C(=O)N[C@@H](CCCNC(=N)N)C(=O)N[C@H](C(N)=O)C(C)C)NC1=O [Compound R2245] — higher, > 50 µM
- CC[C@@H](C)[C@@H]1NC(=O)[C@@H]2CCCN2C(=O)CCCCC/C=C/C[C@@H](C(=O)N[C@@H](CCCNC(=N)N)C(=O)N[C@H](C(N)=O)C(C)C)NC1=O [Compound R2246] — higher, > 50 µM
- CC(C)(C)[C@H](NC(=O)[C@H](CCCNC(=N)N)NC(=O)[C@@H]1CCCn2cc(nn2)CCCCC(=O)N2CCC[C@H]2C(=O)N[C@@H](C2CCCCC2)C(=O)N1)C(N)=O [Compound R2248] — higher, > 100 µM
- CC(C)(C)[C@H](NC(=O)[C@H](CCCNC(=N)N)NC(=O)[C@@H]1CCn2cc(nn2)CCCCC(=O)N2CCC[C@H]2C(=O)N[C@@H](C2CCCCC2)C(=O)N1)C(N)=O [Compound R2249] — higher, > 100 µM
- CC(C)(C)[C@H](NC(=O)[C@H](CCCNC(=N)N)NC(=O)[C@@H]1CCCn2cc(nn2)CCCCCC(=O)N2CCC[C@H]2C(=O)N[C@@H](C2CCCCC2)C(=O)N1)C(N)=O [Compound R2250] — higher, > 100 µM
- CC(C)(C)[C@H](NC(=O)[C@H](CCCNC(=N)N)NC(=O)[C@@H]1CCn2cc(nn2)CCCCCC(=O)N2CCC[C@H]2C(=O)N[C@@H](C2CCCCC2)C(=O)N1)C(N)=O [Compound R2251] — higher, > 100 µM
- CC(C)(C)[C@H](NC(=O)[C@H](CCCNC(=N)N)NC(=O)[C@@H]1COCc2cn(nn2)CCCCC(=O)N2CCC[C@H]2C(=O)N[C@@H](C2CCCCC2)C(=O)N1)C(N)=O [Compound R2252] — higher, > 100 µM
- CC(C)(C)[C@H](NC(=O)[C@H](CCCNC(=N)N)NC(=O)[C@@H]1CCCc2cn(nn2)CCCCC(=O)N2CCC[C@H]2C(=O)N[C@@H](C2CCCCC2)C(=O)N1)C(N)=O [Compound R2253] — higher, > 100 µM
- CC(C)(C)[C@H](NC(=O)[C@H](CCCNC(=N)N)NC(=O)[C@@H]1CCc2cn(nn2)CCCCCC(=O)N2CCC[C@H]2C(=O)N[C@@H](C2CCCCC2)C(=O)N1)C(N)=O [Compound R2254] — higher, > 100 µM
- CC(C)(C)[C@H](NC(=O)[C@H](CCCNC(=N)N)NC(=O)[C@@H]1COc2cccc(c2)OCCCC(=O)N2CCC[C@H]2C(=O)N[C@@H](C2CCCCC2)C(=O)N1)C(N)=O [Compound R2255] — higher, > 25 µM
- CC(C)(C)[C@H](NC(=O)[C@H](CCCNC(=N)N)NC(=O)[C@@H]1CCOc2cccc(c2)OCCCC(=O)N2CCC[C@H]2C(=O)N[C@@H](C2CCCCC2)C(=O)N1)C(N)=O [Compound R2256] — higher, > 100 µM
- CN1CC(=O)N2CCC[C@H]2C(=O)N[C@@H](C2CCCCC2)C(=O)N[C@H](C(=O)N[C@@H](CCCNC(=N)N)C(=O)N[C@H](C(N)=O)C(C)(C)C)CSCc2cccc(c2)CC1=O [Compound R2257] ([Sar]P[Chg]CR[Tle]-NH2; linker N-4 via X2) — within 1.5-fold, 0.383 µM
